Laboratory results reported in patent publication US10526339B2, “Substituted glucosepanes and compositions thereof” (YALE UNIVERSITY, priority 2015, dated 2020).

How the values were obtained:
[1] = EXSY NOESY conformational exchange (E/Z isomerization); type: physicochemical
Text: With synthetic glucosepane (5) in hand, we next investigated its structural features using multidimensional NMR techniques. […] Indeed, although the original glucosepane isolation report did note the possibility of E/Z isomerism in acyclic 2-amino imidazoles, the presence of these exchange peaks in the case of glucosepane have previously been incorrectly attributed to stereoisomerism at the C-8a stereocenter.^(35) Using an EXSY (EXchange SpectroscopY) NOESY sequence,^(34) the inventors were able to calculate an approximate rate for this conformational exchange process on the order of 3 s^−1 in D2O.^28
The integral ratios and tm were used to calculate an approximate rate by the following formula:^5
[formula] Xa=mole fraction of conformer A Xb=mole fraction of conformer B Iaa=integral intensity for diagonal peak (conformer A) Ibb=integral intensity for diagonal peak (conformer B) Iab and Iba=integral intensity for cross-peak Sample calculation with the data provided above: […]

[2] = Hydrogen/deuterium exchange at C-8a in D2O; type: physicochemical; details: basic conditions (aqueous NaOD), either epimer
[3] = Glucosepane pKa study (UV pH titration)
Text: The inventors next took advantage of glucospane's intrinsic spectral properties to measure the pKa of the iso-imidazole core.

| SMILES | k ([1]; sample calculation from 2D NOESY integrals, tm 1.00 sec) | time for quantitative hydrogen/deuterium exchange at the C-8a H-atom [2] | approximate rate of conformational exchange (E/Z isomerization about exocyclic C2-N bond) ([1]; in D2O, EXSY NOESY) | pKa [3] |
| --- | --- | --- | --- | --- |
| N[C@@H](CCCCN1C[C@@H](O)[C@@H](O)C[C@@H]2N=C(NCCC[C@H](N)C(=O)O)N=C21)C(=O)O [Compound 5, Glucosepane Tris-Trifluoroacetate] | 2.89 s⁻¹ |  |  |  |
| N[C@@H](CCCCN1C[C@@H](O)[C@@H](O)C[C@@H]2N=C(NCCC[C@H](N)C(=O)O)N=C21)C(=O)O (stereo in doubt) [Compound 5, Glucosepane Tris-Trifluoroacetate] |  | < 60 min | ~3 s⁻¹ | ~12 |
